{
  "source": "patent US7229825B2",
  "about": "“Double-transfected cell line useful for the identification of transport inhibitors” (Deutches Krebsforschungszentrum Stiftung des Offentlichen …, priority 2001, dated 2007)",
  "key": {"[1]": {"molecular_target": "T1, human OATP8 (MDCK-OATP8 cells) (Homo sapiens, UniProt Q9NPD5)", "T1 sequence (Q9NPD5 1-702)": "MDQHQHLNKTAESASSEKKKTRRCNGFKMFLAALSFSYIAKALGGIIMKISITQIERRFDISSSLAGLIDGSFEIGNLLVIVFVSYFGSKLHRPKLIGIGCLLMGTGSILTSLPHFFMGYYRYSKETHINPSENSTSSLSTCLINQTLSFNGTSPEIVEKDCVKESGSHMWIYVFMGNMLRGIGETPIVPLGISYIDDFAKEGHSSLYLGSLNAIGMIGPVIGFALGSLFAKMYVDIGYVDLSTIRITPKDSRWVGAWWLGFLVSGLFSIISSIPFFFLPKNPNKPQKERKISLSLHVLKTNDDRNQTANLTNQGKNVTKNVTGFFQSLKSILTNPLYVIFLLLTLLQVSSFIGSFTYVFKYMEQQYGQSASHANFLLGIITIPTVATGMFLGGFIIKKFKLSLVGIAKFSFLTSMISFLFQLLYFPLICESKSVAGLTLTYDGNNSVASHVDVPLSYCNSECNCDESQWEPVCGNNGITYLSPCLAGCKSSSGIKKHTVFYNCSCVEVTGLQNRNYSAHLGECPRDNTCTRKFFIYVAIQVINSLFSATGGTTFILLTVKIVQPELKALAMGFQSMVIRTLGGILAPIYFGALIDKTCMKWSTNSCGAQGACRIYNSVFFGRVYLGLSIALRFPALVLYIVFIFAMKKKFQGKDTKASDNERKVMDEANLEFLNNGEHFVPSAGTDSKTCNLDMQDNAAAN", "experiment": "Inhibition of [3H]BSP accumulation and transport in MDCK-OATP8 cells", "details": "pre-incubation 20 min at room temperature, up to a concentration of 50 μM", "quoted_text": "(§1) For transport assays MDCKII cells were grown on Transwell membrane inserts (24 mm diameter, 0.4 μm pore size, Corning Costar) at confluency for 3 days and induced with 10 mM sodium butyrate for 24 h. Cells were first washed with transport buffer (142 mM NaCl, 5 mM KCl, 1 mM KH2PO4, 1.2 mM MgSO4, 1.5 mM CaCl2, 5 mM glucose, and 12.5 mM HEPES, pH 7.3), subsequently, ^3H-labeled substrates were added in transport buffer either to the apical compartments (1 ml) or to the basolateral compartments (1.5 ml). After the time periods indicated, the radioactivity in the opposite compartments was measured. The intracellular accumulation of the radioactivity was determined by lysing the cells with 2 ml 0.2% SDS in water and measuring the radioactivity in cell lysates.\n(§2) For inhibition studies the inhibitors were added simultaneously with [^3H]BSP into the basolateral compartments, with the exception of 1-chloro-2,4-dinitrobenzene (CDNB). In this case, MDCKII cells grown on Transwell membrane inserts were pre-incubated with CDNB in transport puffer in both apical and basolateral compartments for 20 min at room temperature. The transcellular transport was then started by replacing the buffer in the basolateral compartments by fresh buffer containing CDNB and [^3H]BSP."}, "[2]": {"tested_on": "human OATP8 and MRP2 (MDCK-MRP2/OATP8 cells)", "experiment": "Inhibition of transcellular [3H]BSP transport in MDCK-MRP2/OATP8 cells", "type": "cell-based", "details": "1 μM [3H]BSP, 30 min, 37° C.", "quoted_text": "as §1, §2"}, "[3]": {"tested_on": "human OATP8 and MRP2 (MDCK-MRP2/OATP8 cells)", "experiment": "Transcellular transport of organic anions across MDCK-MRP2/OATP8 cells on Transwell membrane inserts", "details": "substrate in basolateral compartment, 37° C., apical compartment measured; MDCK-MRP2/OATP8 compared with MDCK-OATP8, MDCK-Co (and MDCK-MRP2) cells", "quoted_text": "(§3) For transport assays MDCKII cells were grown on Transwell membrane inserts (24 mm diameter, 0.4 μm pore size, Corning Costar) at confluency for 3 days and induced with 10 mM sodium butyrate for 24 h. […] After the time periods indicated, the radioactivity in the opposite compartments was measured. The intracellular accumulation of the radioactivity was determined by lysing the cells with 2 ml 0.2% SDS in water and measuring the radioactivity in cell lysates.\n(§4) To study the transcellular transport of Fluo-3, cells were incubated with 2 μM Fluo-3 in the basolateral compartments at 37° C. for 30 min.\n(§5) To study the transcellular transport of rifampicin, cells were incubated with 50 μM rifampicin in the basolateral compartments at 37° C. for 30 min. To determine the concentration of rifampicin in the apical compartments its absorption at 475 nm was measured with a spectrophotometer (Ultrospec III, Amersham-Pharmacia, Freiburg, Germany). A calibration curve for the calculation of the concentrations of rifampicin was determined in the concentration range between 1 and 50 μM."}, "[4]": {"tested_on": "human OATP8 and MRP2 (MDCK-MRP2/OATP8 cells)", "quoted_text": "as §3, §4, §5"}, "human MRP2": {"molecular_target": "human MRP2 (Homo sapiens, UniProt Q92887)", "experiment": "Inhibition of [3H]LTC4 transport into HEK-MRP2 membrane vesicles", "type": "biochemical", "details": "inhibitor at 50 μM"}, "MDCKII cell lines": {"tested_on": "MDCKII cell lines", "experiment": "Transcellular leakage of [14C]inulin carboxylic acid across MDCKII cell monolayers", "type": "cell-based, canine", "details": "50 μM basolateral, 30 min, all four MDCKII cell lines", "experimental": "The transcellular leakage was determined by incubating cells with 50 μM [^14C]inulin carboxylic acid in the basolateral compartments for 30 min and measuring the radioactivity in the apical compartments. For all four MDCKII cell lines used in this work the transcellular leakage was lower than 1%."}, "[5]": {"substrate": "O=C1OC(c2ccc(O)c(S(=O)(=O)O)c2)(c2ccc(O)c(S(=O)(=O)O)c2)c2c(Br)c(Br)c(Br)c(Br)c21", "experiment": "ATP-dependent transport of [3H]BSP into inside-out membrane vesicles from HEK-MRP2 cells", "type": "biochemical, human", "details": "other: BSP concentrations between 1 and 10 μM; pH 7.4; 37.0 °C", "experimental": "Vesicle Transport Studies. Transport of [^3H]BSP into membrane vesicles was measured by the rapid filtration method (Keppler et al. 1998). Briefly, membrane vesicles (30 μg protein) were incubated in the presence of 4 mM ATP, 10 mM creatine phosphate, 100 μg/ml creatine kinase, and [^3H]BSP in an incubation buffer (250 mM sucrose, 10 mM Tris/HCl, pH 7.4) in a final volume of 55 μl at 37° C. Aliquots (15 μl) were taken at the indicated time points, diluted in 1 ml ice-cold incubation buffer, and immediately filtered through presoaked nitrocellulose membrane (0.2 μm pore size, Schleicher & Schüll, Dassel, Germany). Filters were rinsed twice with 5 ml of incubation buffer, dissolved in liquid scintillation fluid, and counted for radioactivity. In control experiments, ATP was replaced by an equal concentration of 5′-AMP. ATP-dependent transport was calculated by subtracting values obtained in the presence of 5′-AMP from those obtained in the presence of ATP."}},
  "note": "Read-outs that look alike come from different tables or passages of the source.",
  "data": [
    {"molecule": "O=[N+]([O-])c1ccc(Cl)c([N+](=O)[O-])c1", "note": "[CDNB, 1-chloro-2,4-dinitrobenzene]", "values": [
      {"measurement": "effect on intracellular accumulation of [3H]BSP in MDCK-OATP8 cells", "setting": "[1]", "result": "not inhibited"},
      {"measurement": "effect on transcellular transport of [3H]BSP in MDCK-OATP8 cells", "setting": "[1]", "result": "not inhibited"},
      {"measurement": "effect on intracellular accumulation of [3H]BSP in MDCK-MRP2/OATP8 cells", "setting": "[2]; different concentrations", "result": "enhanced"},
      {"measurement": "effect on transcellular transport of [3H]BSP in MDCK-MRP2/OATP8 cells", "setting": "[2]; different concentrations", "result": "markedly inhibited"}
    ]},
    {"molecule": "C[C@]12CC[C@@H]3c4ccc(O)cc4CC[C@H]3[C@@H]1CC[C@@H]2O[C@@H]1O[C@H](C(=O)O)[C@@H](O)[C@H](O)[C@H]1O", "note": "[E217bG, 17b-glucuronosyl estradiol]", "values": [
      {"measurement": "transcellular transport (basolateral to apical)", "setting": "[3]", "result": "much higher velocities"}
    ]},
    {"molecule": "Cc1ccc(N(CC(=O)O)CC(=O)O)c(OCCOc2cc(-c3c4cc(Cl)c(=O)cc-4oc4cc(O)c(Cl)cc34)ccc2N(CC(=O)O)CC(=O)O)c1.N.N.N.N.N", "note": "[Fluo-3, 1-[2-amino-5-(2,7-dichloro-6-hydroxy-3-oxo-3H-xanthen-9-yl)]-2-(2′-amino-5′-methyl-phenoxyl)-ethane-N,N,N′,N′-tetraacetic acid penta-ammonium salt]", "values": [
      {"measurement": "transcellular transport (basolateral to apical)", "setting": "[4]", "result": "higher transport rate"}
    ]},
    {"molecule": "CCCCC/C=C\\C\\C=C/C=C/C=C/[C@@H](SC[C@H](NC(=O)CC[C@H](N)C(=O)O)C(=O)NCC(=O)O)[C@@H](O)CCCC(=O)O", "note": "[LTC4, leukotriene C4]", "values": [
      {"measurement": "transcellular transport (basolateral to apical)", "setting": "[4]", "result": "much higher velocities"}
    ]},
    {"molecule": "C[C@H](CCC(=O)NCCS(=O)(=O)O)[C@H]1CC[C@H]2[C@@H]3[C@H](O)C[C@@H]4C[C@H](O)CC[C@]4(C)[C@H]3C[C@H](O)[C@]12C", "note": "[[^3H]cholyl taurine, cholyl taurine]", "values": [
      {"measurement": "transcellular transport (basolateral to apical)", "setting": "[3]", "result": "no difference in transport rates"}
    ]},
    {"molecule": "CO[C@H]1/C=C/O[C@@]2(C)Oc3c(C)c(O)c4c(O)c(c(/C=N/N5CCN(C)CC5)c(O)c4c3C2=O)NC(=O)/C(C)=C\\C=C\\[C@H](C)[C@H](O)[C@@H](C)[C@@H](O)[C@@H](C)[C@H](OC(C)=O)[C@@H]1C", "note": "[rifampicin]", "values": [
      {"measurement": "transcellular transport (basolateral to apical)", "setting": "[3]", "result": "significantly higher transcellular transport"},
      {"measurement": "[3H]LTC4 transport into HEK-MRP2 membrane vesicles", "setting": "human MRP2", "result": "50 % of control"},
      {"measurement": "intracellular accumulation of [3H]BSP in MDCK-MRP2/OATP8 cells", "setting": "[2]", "result": "about 50 % of control"}
    ]},
    {"molecule": "CO[C@H]1/C=C/O[C@@]2(C)Oc3c(C)c([O-])c4c(O)c(cc(O)c4c3C2=O)NC(=O)/C(C)=C\\C=C\\[C@H](C)[C@H](O)[C@@H](C)[C@@H](O)[C@@H](C)[C@H](OC(C)=O)[C@@H]1C.[Na+]", "note": "[rifamycin SV]", "values": [
      {"measurement": "[3H]LTC4 transport into HEK-MRP2 membrane vesicles", "setting": "human MRP2", "result": "38 % of control"},
      {"measurement": "intracellular accumulation of [3H]BSP in MDCK-MRP2/OATP8 cells", "setting": "[2]", "result": "about 50 % of control"},
      {"measurement": "effect on transcellular transport of [3H]BSP in MDCK-MRP2/OATP8 cells", "setting": "[2]; different concentrations", "result": "inhibited more strongly"}
    ]},
    {"molecule": "Inulin carboxylic acid [[^14C]Inulin carboxylic acid]", "values": [
      {"measurement": "transcellular leakage", "setting": "MDCKII cell lines", "result": "lower than 1%"}
    ]},
    {"molecule": "human MRP2 (Homo sapiens) (protein, expressed in transfected cells) MLEKFCNSTFWNSSFLDSPEADLPLCFEQTVLVWIPLGYLWLLAPWQLLHVYKSRTKRSSTTKLYLAKQVFVGFLLILAAIELALVLTEDSGQATVPAVRYTNPSLYLGTWLLVLLIQYSRQWCVQKNSWFLSLFWILSILCGTFQFQTLIRTLLQGDNSNLAYSCLFFISYGFQILILIFSAFSENNESSNNPSSIASFLSSITYSWYDSIILKGYKRPLTLEDVWEVDEEMKTKTLVSKFETHMKRELQKARRALQRRQEKSSQQNSGARLPGLNKNQSQSQDALVLEDVEKKKKKSGTKKDVPKSWLMKALFKTFYMVLLKSFLLKLVNDIFTFVSPQLLKLLISFASDRDTYLWIGYLCAILLFTAALIQSFCLQCYFQLCFKLGVKVRTAIMASVYKKALTLSNLARKEYTVGETVNLMSVDAQKLMDVTNFMHMLWSSVLQIVLSIFFLWRELGPSVLAGVGVMVLVIPINAILSTKSKTIQVKNMKNKDKRLKIMNEILSGIKILKYFAWEPSFRDQVQNLRKKELKNLLAFSQLQCVVIFVFQLTPVLVSVVTFSVYVLVDSNNILDAQKAFTSITLFNILRFPLSMLPMMISSMLQASVSTERLEKYLGGDDLDTSAIRHDCNFDKAMQFSEASFTWEHDSEATVRDVNLDIMAGQLVAVIGPVGSGKSSLISAMLGEMENVHGHITIKGTTAYVPQQSWIQNGTIKDNILFGTEFNEKRYQQVLEACALLPDLEMLPGGDLAEIGEKGINLSGGQKQRISLARATYQNLDIYLLDDPLSAVDAHVGKHIFNKVLGPNGLLKGKTRLLVTHSMHFLPQVDEIVVLGNGTIVEKGSYSALLAKKGEFAKNLKTFLRHTGPEEEATVHDGSEEEDDDYGLISSVEEIPEDAASITMRRENSFRRTLSRSSRSNGRHLKSLRNSLKTRNVNSLKEDEELVKGQKLIKKEFIETGKVKFSIYLEYLQAIGLFSIFFIILAFVMNSVAFIGSNLWLSAWTSDSKIFNSTDYPASQRDMRVGVYGALGLAQGIFVFIAHFWSAFGFVHASNILHKQLLNNILRAPMRFFDTTPTGRIVNRFAGDISTVDDTLPQSLRSWITCFLGIISTLVMICMATPVFTIIVIPLGIIYVSVQMFYVSTSRQLRRLDSVTRSPIYSHFSETVSGLPVIRAFEHQQRFLKHNEVRIDTNQKCVFSWITSNRWLAIRLELVGNLTVFFSALMMVIYRDTLSGDTVGFVLSNALNITQTLNWLVRMTSEIETNIVAVERITEYTKVENEAPWVTDKRPPPDWPSKGKIQFNNYQVRYRPELDLVLRGITCDIGSMEKIGVVGRTGAGKSSLTNCLFRILEAAGGQIIIDGVDIASIGLHDLREKLTIIPQDPILFSGSLRMNLDPFNNYSDEEIWKALELAHLKSFVASLQLGLSHEVTEAGGNLSIGQRQLLCLGRALLRKSKILVLDEATAAVDLETDNLIQTTIQNEFAHCTVITIAHRLHTIMDSDKVMVLDNGKIIECGSPEELLQIPGPFYFMAKEAGIENVNSTKF", "values": [
      {"measurement": "Km", "setting": "[5]", "result": 12, "unit": "µM"}
    ]}
  ]
}
